Results taken from patent US10669242B2 (priority 2016, dated 2020).

Each compound was assayed against T1, recombinant glucosyltransferase domain of C. difficile Toxin B/TcdB (Clostridioides difficile, UniProt P18177) (assay: biochemical).
T1 construct: 6-His (C); purchased R&D Systems 6246-GT
T1 sequence (P18177 1-543): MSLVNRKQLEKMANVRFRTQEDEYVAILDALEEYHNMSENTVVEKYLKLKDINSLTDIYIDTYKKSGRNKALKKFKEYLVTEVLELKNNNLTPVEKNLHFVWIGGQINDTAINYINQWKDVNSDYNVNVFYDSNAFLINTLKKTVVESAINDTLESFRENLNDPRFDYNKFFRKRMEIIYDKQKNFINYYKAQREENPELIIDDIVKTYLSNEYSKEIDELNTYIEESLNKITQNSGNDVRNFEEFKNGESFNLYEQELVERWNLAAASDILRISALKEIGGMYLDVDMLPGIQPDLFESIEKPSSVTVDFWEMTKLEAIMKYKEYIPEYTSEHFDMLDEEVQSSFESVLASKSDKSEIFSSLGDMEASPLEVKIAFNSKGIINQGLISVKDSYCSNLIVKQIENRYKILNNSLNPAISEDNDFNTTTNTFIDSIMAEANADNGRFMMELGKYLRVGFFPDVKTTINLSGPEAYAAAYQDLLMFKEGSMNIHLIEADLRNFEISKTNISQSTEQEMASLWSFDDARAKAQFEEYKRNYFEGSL
In the case of Cc1cnc(NC(=O)c2ccc(S(=O)(=O)N3Cc4ccc(Cl)cc4NC(=O)[C@H]3Cc3ccccn3)cc2)nc1 [Example 19g, (R)-4-((8-chloro-2-oxo-3-(pyridin-2-ylmethyl)-2,3-dihydro-1H-benzo[e][1,4]diazepin-4(5H)-yl)sulfonyl)-N-(5-methylpyrimidin-2-yl)benzamide], the IC50 is reported as < 100 nM.
For COc1cnc(NC(=O)c2ccc(S(=O)(=O)N3Cc4ccc(Cl)cc4NC(=O)[C@H]3Cc3ccccn3)cc2)nc1 [Example 19h, (R)-4-((8-chloro-2-oxo-3-(pyridin-2-ylmethyl)-2,3-dihydro-1H-benzo[e][1,4]diazepin-4(5H)-yl)sulfonyl)-N-(5-methoxypyrimidin-2-yl)benzamide], the IC50 was < 100 nM.
O=C(Nc1ccccn1)c1ccc(C(=O)N2Cc3ccc(Cl)cc3NC(=O)[C@H]2Cc2ccccn2)cc1 [Example 19i, (R)-4-(8-chloro-2-oxo-3-(pyridin-2-ylmethyl)-2,3,4,5-tetrahydro-1H-benzo[e][1,4]diazepine-4-carbonyl)-N-(pyridin-2-yl)benzamide] gave an IC50 of 1000 to 10000 nM.
O=C(Nc1ccccn1)c1cccc(S(=O)(=O)N2Cc3ccc(Cl)cc3NC(=O)[C@H]2Cc2ccccn2)c1 [Example 19j, (R)-3-((8-chloro-2-oxo-3-(pyridin-2-ylmethyl)-2,3-dihydro-1H-benzo[e][1,4]diazepin-4(5H)-yl)sulfonyl)-N-(pyridin-2-yl)benzamide] was tested, and the IC50 was 10000 to 35000 nM.
Compound O=C(Nc1ccccn1)c1ccc(CN2Cc3ccc(Cl)cc3NC(=O)[C@H]2Cc2ccccn2)cc1 [Example 20a, (R)-4-((8-Chloro-2-oxo-3-(pyridin-2-ylmethyl)-2,3-dihydro-1H-benzo[e][1,4]diazepin-4(5H)-yl)methyl)-N-(pyridin-2-yl)benzamide] has an IC50 of 1000 to 10000 nM.
Compound O=C(Nc1cc(CN2C(=O)c3ccc(Cl)cc3NC(=O)[C@H]2Cc2ccccn2)ccc1C(=O)O)c1ccccn1 [Example 21a, (R)-4-((8-Chloro-2,5-dioxo-3-(pyridin-2-ylmethyl)-2,3-dihydro-1H-benzo[e][1,4]diazepin-4(5H)-yl)methyl)-2-(picolinamido)benzoic Acid] has an IC50 of 1000 to 10000 nM.
In the case of CC(=O)Nc1cc(CN2C(=O)c3ccc(Cl)cc3NC(=O)[C@H]2Cc2ccccn2)ccc1C(=O)O [Example 22a, (R)-2-Acetamido-4-((8-chloro-2,5-dioxo-3-(pyridin-2-ylmethyl)-2,3-dihydro-1H-benzo[e][1,4]diazepin-4(5H)-yl)methyl)benzoic Acid], the IC50 is reported as 100 to 999 nM.
COCC(=O)Nc1cc(CN2C(=O)c3ccc(Cl)cc3NC(=O)[C@H]2Cc2ccccn2)ccc1C(=O)O [Example 22b] showed an IC50 of 100 to 999 nM.
O=C(O)c1ccc(CN2C(=O)c3ccc(Cl)cc3NC(=O)[C@H]2Cc2ccccn2)cc1NC(=O)C1CCCCC1 [Example 22c] gave an IC50 of 100 to 999 nM.
CN(C)CC(=O)Nc1cc(CN2C(=O)c3ccc(Cl)cc3NC(=O)[C@H]2Cc2ccccn2)ccc1C(=O)O [Example 22d] was tested, and the IC50 was 1000 to 10000 nM.
For COCCC(=O)Nc1cc(CN2C(=O)c3ccc(Cl)cc3NC(=O)[C@H]2Cc2ccccn2)ccc1C(=O)O [Example 22e], the IC50 was 1000 to 10000 nM.
In the case of O=C(Nc1cc(CN2C(=O)c3ccc(Cl)cc3NC(=O)[C@H]2Cc2ccccn2)ccc1C(=O)O)c1ccncc1 [Example 22f], the IC50 is reported as 1000 to 10000 nM.
O=C(Nc1cc(CN2C(=O)c3ccc(Cl)cc3NC(=O)[C@H]2Cc2ccccn2)ccc1C(=O)O)c1cccnc1 [Example 22g] gave an IC50 of 1000 to 10000 nM.
For O=C(CN1CCOCC1)Nc1cc(CN2C(=O)c3ccc(Cl)cc3NC(=O)[C@H]2Cc2ccccn2)ccc1C(=O)O [Example 22h], the IC50 was 1000 to 10000 nM.
With CN1CCC(C(=O)Nc2cc(CN3C(=O)c4ccc(Cl)cc4NC(=O)[C@H]3Cc3ccccn3)ccc2C(=O)O)CC1 [Example 22i] the IC50 was 10000 to 35000 nM.
With CN1CCN(CC(=O)Nc2cc(CN3C(=O)c4ccc(Cl)cc4NC(=O)[C@H]3Cc3ccccn3)ccc2C(=O)O)CC1 [Example 22j] the IC50 was 1000 to 10000 nM.
CN(C)CCC(=O)Nc1cc(CN2C(=O)c3ccc(Cl)cc3NC(=O)[C@H]2Cc2ccccn2)ccc1C(=O)O [Example 22k] gave an IC50 of 100 to 999 nM.
CN1CCC(CC(=O)Nc2cc(CN3C(=O)c4ccc(Cl)cc4NC(=O)[C@H]3Cc3ccccn3)ccc2C(=O)O)CC1 [Example 22l] gave an IC50 of 100 to 999 nM.
For O=C(O)c1ccc(CN2C(=O)c3ccc(Cl)cc3NC(=O)[C@H]2Cc2ccccn2)cc1NC(=O)C1CCOCC1 [Example 22m], the IC50 was 100 to 999 nM.
O=C(CN1CCCC1)Nc1cc(CN2C(=O)c3ccc(Cl)cc3NC(=O)[C@H]2Cc2ccccn2)ccc1C(=O)O [Example 22n] was tested, and the IC50 was 100 to 999 nM.
O=C(CO)Nc1cc(CN2C(=O)c3ccc(Cl)cc3NC(=O)[C@H]2Cc2ccccn2)ccc1C(=O)O [Example 22o] was tested, and the IC50 was 100 to 999 nM.
Compound Nc1ccc(CN2C(=O)c3ccc(Cl)cc3NC(=O)[C@H]2Cc2ccccn2)cc1 [Example 23a, (R)-4-(4-Aminobenzyl)-8-chloro-3-(pyridin-2-ylmethyl)-3,4-dihydro-1H-benzo[e][1,4]diazepine-2,5-dione] has an IC50 of 1000 to 10000 nM.
Work on Cc1cc(CN2C(=O)c3ccc(Cl)cc3NC(=O)[C@H]2Cc2ccccn2)cc(C)c1N [Example 24a, (R)-4-(4-Amino-3,5-dimethylbenzyl)-8-chloro-3-(pyridin-2-ylmethyl)-3,4-dihydro-1H-benzo[e][1,4]diazepine-2,5-dione] yielded an IC50 of 10000 to 35000 nM.
Work on Cc1ccc(C(=O)N[C@H]2CC[C@H](CN3C(=O)c4ccc(Cl)cc4NC(=O)[C@H]3Cc3ccccn3)CC2)nc1 [Example 25a, N-((1R,4r)-4-(((R)-8-Chloro-2,5-dioxo-3-(pyridin-2-ylmethyl)-2,3-dihydro-1H-benzo[e][1,4]diazepin-4(5H)-yl)methyl)cyclohexyl)-5-methylpicolinamide] yielded an IC50 of 100 to 999 nM.
For O=C(Nc1ccc(CN2C(=O)c3ccc(Cl)cc3NC(=O)[C@H]2Cc2cccnc2)cc1)c1ccccn1 [Example 26a, (R)—N-(4-((8-Chloro-2,5-dioxo-3-(pyridin-3-ylmethyl)-2,3-dihydro-1H-benzo[e][1,4]diazepin-4(5H)-yl)methyl)phenyl)picolinamide], the IC50 was 100 to 999 nM.
In the case of O=C(Nc1ccc(CN2C(=O)c3ccc(Cl)cc3NC(=O)[C@H]2Cc2ccccn2)cc1)c1ccccn1 [Example 26b], the IC50 is reported as < 100 nM.
In the case of Cc1ccnc(C(=O)Nc2ccc(CN3C(=O)c4ccc(Cl)cc4NC(=O)[C@H]3Cc3ccccn3)cc2)c1 [Example 26c], the IC50 is reported as < 100 nM.
For Cc1cccc(C(=O)Nc2ccc(CN3C(=O)c4ccc(Cl)cc4NC(=O)[C@H]3Cc3ccccn3)cc2)n1 [Example 26d], the IC50 was 1000 to 10000 nM.
In the case of Cc1cccnc1C(=O)Nc1ccc(CN2C(=O)c3ccc(Cl)cc3NC(=O)[C@H]2Cc2ccccn2)cc1 [Example 26e], the IC50 is reported as 1000 to 10000 nM.
Cc1ccc(C(=O)Nc2ccc(CN3C(=O)c4ccc(Cl)cc4NC(=O)[C@H]3Cc3ccccn3)cc2)nc1 [Example 26f] was tested, and the IC50 was < 100 nM.
Work on O=C(Nc1ccc(CN2C(=O)c3ccc(Cl)cc3NC(=O)[C@H]2Cc2ccccn2)cc1)c1ncccc1Cl [Example 26g] yielded an IC50 of 1000 to 10000 nM.
For O=C(Nc1ccc(CN2C(=O)c3ccc(Cl)cc3NC(=O)[C@H]2Cc2ccccn2)cc1)c1cc(Cl)ccn1 [Example 26h], the IC50 was 100 to 999 nM.
With O=C(Nc1ccc(CN2C(=O)c3ccc(Cl)cc3NC(=O)[C@H]2Cc2ccccn2)cc1)c1ccc(Cl)cn1 [Example 26i] the IC50 was < 100 nM.
With O=C(N[C@H]1CC[C@H](CN2C(=O)c3ccc(Cl)cc3NC(=O)[C@H]2Cc2ccccn2)CC1)c1ccccn1 [Example 26j] the IC50 was 100 to 999 nM.
Compound Cc1cc(CN2C(=O)c3ccc(Cl)cc3NC(=O)[C@H]2Cc2ccccn2)cc(C)c1NC(=O)c1ccccn1 [Example 26k] has an IC50 of 100 to 999 nM.
With Cc1ccc(C(=O)Nc2c(C)cc(CN3C(=O)c4ccc(Cl)cc4NC(=O)[C@H]3Cc3ccccn3)cc2C)nc1 [Example 26l] the IC50 was 100 to 999 nM.
For O=C(Nc1ccc(CN2C(=O)c3ccc(Cl)cc3NC(=O)[C@H]2Cc2ccccn2)cc1)c1cccnc1O [Example 27a, (R)—N-(4-((8-Chloro-2,5-dioxo-3-(pyridin-2-ylmethyl)-2,3-dihydro-1H-benzo[e][1,4]diazepin-4(5H)-yl)methyl)phenyl)-2-hydroxynicotinamide], the IC50 was 1000 to 10000 nM.
O=C(CO)Nc1ccc(CN2C(=O)c3ccc(Cl)cc3NC(=O)[C@H]2Cc2ccccn2)cc1 [Example 27b] showed an IC50 of 100 to 999 nM.
With O=C(Nc1ccc(CN2C(=O)c3ccc(Cl)cc3NC(=O)[C@H]2Cc2ccccn2)cc1)c1ccncn1 [Example 27c] the IC50 was 100 to 999 nM.
In the case of O=C(Nc1ccc(CN2C(=O)c3ccc(Cl)cc3NC(=O)[C@H]2Cc2ccccn2)cc1)c1cnccn1 [Example 27d], the IC50 is reported as 100 to 999 nM.
O=C(Nc1ccc(CN2C(=O)c3ccc(Cl)cc3NC(=O)[C@H]2Cc2ccccn2)cc1)c1nccs1 [Example 27e] gave an IC50 of 100 to 999 nM.
O=C(Nc1ccc(CN2C(=O)c3ccc(Cl)cc3NC(=O)[C@H]2Cc2ccccn2)cc1)c1cscn1 [Example 27f] was tested, and the IC50 was < 100 nM.
Work on Cc1cc(C(=O)Nc2ccc(CN3C(=O)c4ccc(Cl)cc4NC(=O)[C@H]3Cc3ccccn3)cc2)no1 [Example 27g] yielded an IC50 of 1000 to 10000 nM.
O=C(Nc1ccc(CN2C(=O)c3ccc(Cl)cc3NC(=O)[C@H]2Cc2ccccn2)cc1)c1ncc[nH]1 [Example 27h] was tested, and the IC50 was < 100 nM.
Work on Cn1ccnc1C(=O)Nc1ccc(CN2C(=O)c3ccc(Cl)cc3NC(=O)[C@H]2Cc2ccccn2)cc1 [Example 27i] yielded an IC50 of 100 to 999 nM.
Cn1cnc(C(=O)Nc2ccc(CN3C(=O)c4ccc(Cl)cc4NC(=O)[C@H]3Cc3ccccn3)cc2)c1 [Example 27k] was tested, and the IC50 was < 100 nM.
O=C(Nc1cccc(CN2C(=O)c3ccc(Cl)cc3NC(=O)[C@H]2Cc2ccccn2)c1)c1ccccn1 [Example 28a, (R)—N-(3-((8-Chloro-2,5-dioxo-3-(pyridin-2-ylmethyl)-2,3-dihydro-1H-benzo[e][1,4]diazepin-4(5H)-yl)methyl)phenyl)picolinamide] was tested, and the IC50 was < 100 nM.
Work on COCC(=O)Nc1cccc(CN2C(=O)c3ccc(Cl)cc3NC(=O)[C@H]2Cc2ccccn2)c1 [Example 28b] yielded an IC50 of 1000 to 10000 nM.
Compound O=C(CS)Nc1ccc(CN2C(=O)c3ccc(Cl)cc3NC(=O)[C@H]2Cc2ccccn2)cc1 [Example 29a, (R)—N-(4-((8-Chloro-2,5-dioxo-3-(pyridin-2-ylmethyl)-2,3-dihydro-1H-benzo[e][1,4]diazepin-4(5H)-yl)methyl)phenyl)-2-mercaptoacetamide] has an IC50 of 1000 to 10000 nM.
